Results on six compounds are retold here after US10292994B2, “Bioactive fractions and compounds from Dalbergia sissoo for the prevention or treatment of osteo-health related disorders” (Council of Scientific & Industrial Research, priority 2011, dated 2019).

Each structure is given as a SMILES string. Marks after values point to notes of the source that are not given here. Where only a bound is given, the exact number is not on record here.

One data set concerns Calvarial osteoblasts. Nature of the data set: Osteoblast alkaline phosphatase (ALP) activity. In kind it is cell-based, rat. To be noted: for ALP activity: calvarial osteoblasts, 10 days culture, FIG. 6. On the procedure: (§1) Neonatal rat calvarial cell cultures are prepared as described previously (Chattopadhyay et al., Endocrinology 145:3451-62, 2004) using slight modification. Briefly, for calvarial osteoblast cultures, frontal and parietal bones from neonatal Sprague-Dawley rats (1-3 day old) were digested in 0.1% collagenase/0.1% dispase in α-MEM to obtain 5 sequential digests. The second through fifth digests are combined and grown to confluence at 37° C. and 5% CO2 in air in α-MEM, supplemented with 10% fetal bovine serum (FBS), 2 mM glutamine, 100 U/ml penicillin-streptomycin, non-essential amino acid solution and sodium pyruvate. These osteoblast cells were further used to test thirteen pure compounds designated as 1-13. During the course of culture, pre-osteoblasts undergo three characteristic stages of osteoblasts with the expression of stage specific genes. These are: • Proliferation & differentiation: Days 1-12 • Genes—cbfa1, Osterix, Alkaline phosphatase, • Collagen-1 • Extra-cellular matrix maturation: Days 12-18 • Genes—Osteocalcin, Osteopontin, Fibronectin • Mineralization: Days 14-35 • Feature—Calcification (nodule formation) Measurement of Osteoblast Alkaline Phosphatase (ALP) Activity
Calvarial osteoblasts cells were plated (1500 cells/well in 12 well plate) in the osteoblast differentiation medium and the culture was continued for 10 days with or without treatment with these compounds. This is the time when the ALP levels peak, and serves as an osteoblast differentiation marker. The cells at this point were washed twice with PBS and then plates were fixed by keeping them at −70° C. for 1 h, and then brought to room temperature to determine ALP activity. The rate of the reaction here is directly proportional to the enzyme activity, which itself is proportional to osteoblast differentiation. The O.D. was measured at 405 nm with a microplate reader.

Data set [1] concerns bone morphogenetic protein (BMP-2). In words: In vivo osteogenic efficacy: BMP-2 expression in calvaria by qPCR. More on the design: species or system rat. To be noted: calvaria of 1- to 2-day-old rats, 5.0 mg·kg−1·day−1 s.c. for 3 consecutive days, fold change over vehicle/untreated, FIG. 7. An excerpt:
The results are expressed as fold change over untreated cells (FIG. 7).

A further data set has as its system Osteoblasts. In words: Osteoblast growth / toxicity (MTT). In kind it is cell-based, rat. Conditions: FIG. 8; for growth / proliferation of the osteoblastic cells: 1 pM to 1 μM, 48 h. The procedure:
as §1, with “Briefly,” for “Neonatal rat calvarial cell cultures are prepared as described previously (Chattopadhyay et al., Endocrinology 145:3451-62, 2004) using slight modification. Briefly,”
Many isoflavonoids at micromolar concentrations are known to inhibit osteoblast cell growth. Osteoblasts were cultured in the absence or presence of compounds (dissolved in 0.01% DMSO final concentration) at various concentrations (1 pM to 1 μM) for 48 h. Cells receiving vehicle (0.01% DMSO) served as control. After incubation, the cells were washed with PBS. Then, cells were treated with MTT solution (5 mg/10 mL in DMEM devoid of Phenol Red) for 4 h. Formazon crystals formed were dissolved in DMSO and O.D. was taken at 540 nm.

The test system of data set [2] is ovariectomized Balb/c mice. In words: μCT trabecular microarchitecture after 8 weeks treatment of osteopenic OVx mice. In kind it is in vivo, mouse. Set-up: Tb. Th. / Tb. Sp.: unit not given here. Conditions: for SMI / Tb. No. / Tb. Sp. / Tb. Th. / BV/TV: 8 weeks; for BV/TV: osteopenic OVx mice, mean ± S.D. The procedure:
The study was conducted in accordance with current legislation on animal experiments [Institutional Animal Ethical Committee (IAEC)] at C.D.R.I. Balb/c mice weighing ˜25-30 gm were either bilaterally ovariectomized (OVx) or exposed to a sham surgical procedure. After ovariectomy, mice were left for 30 days for osteopenia to develop. Mice were individually housed at 21° C., in 12-h light:12-h dark cycles. All mice had excess to normal chow diet and water ad libitum. […], treatment in the form of gavage (1.0 mg and 5.0 mg/kg body weight) was given daily. Equal numbers of OVx and sham operated mice served as the control, and were given vehicle. At the end of 8 weeks, mice were euthanized. At autopsy, both femur and tibia were dissected and separated from adjacent tissue, cleaned, and used for μCT measurements.

Data set [3] concerns bone marrow stromal cells. Nature of the data set: Mineralization of bone marrow stromal cells of estrogen deficient rats. In kind it is in vivo, rat. To be noted: estrogen deficient (OVx) rats vs OVx rats treated with vehicle; estrogen 2.5 μg/kg.
For data set [4], the system named is ovariectomized (OVx) Sprague Dawley rats. Nature of the data set: μCT trabecular microarchitecture after 12 weeks treatment of OVx rats. To be noted: for SMI / Tb. No. / Tb. Sp. / Tb. Th.: estradiol 2.5 μg·kg−1·day−1; for BV/TV: estradiol 2.5 μg·kg−1·day−1, mean ± S.D. In kind it is in vivo, rat. The procedure:
The study was conducted in accordance with current legislation on animal experiments [Institutional Animal Ethical Committee (IAEC)] at C.D.R.I. […] Sprague Dawley rats weighing 180-200 gm were either bilaterally ovariectomized (OVx) or exposed to a sham surgical procedure. All rats were individually housed at 21° C., in 12-h light:12-h dark cycles. All rats had excess to normal chow diet and water ad libitum. After OVx, the rats were left for 12 weeks to develop osteopenia. […] Equal numbers of OVx and sham operated rats served as the control, and were given vehicle (20% ethanol). The rats were weighed each week. […] After twenty-four hours of fasting urine samples were collected in fresh containers, centrifuged at 2000 rpm at room temperature and stored at -20° C. until analyzed. Rats were then euthanized. At autopsy, blood samples were collected by cardiac puncture in tubes, and serum samples collected and frozen until analysis. Uteri were carefully excised, gently blotted, weighed, and fixed for histology and histomorphometry. About 5 mm pieces from the middle segment of each uterus were dehydrated in ascending grades of ethanol, cleared in xylene, and embedded in paraffin wax using standard procedures. Representative transverse sections (5 μm) were stained with H&E stain. Photomicrographs of sections were obtained using a Leica DC 300 camera and Leica IM50 Image Acquisition software fitted to a Leica DMLB microscope. Histomorphometric measurements were done using Leica Qwin-Semiautomatic image Analysis software. μCT (both 2-D and 3-D) determination of excised bones was carried out using the Sky Scan 1076 μCT scanner (Aartselaar, Belgium) using the cone-beam reconstruction software version 2.6 based on the Feldkamp algorithm (Skyscan). The bone marrow was harvested for ex vivo experiments. Both femora were dissected and separated from adjacent tissue, cleaned, and used for RNA isolation and also micro measurements. Trabecular response to A-4744/[…] treatment of OVx rats was quantified at the femur epiphysis and tibial proximal metaphysis.

The mark [5] stands for this setting: femur, OVx mice, 1 mg · kg^-1 · day^-1.
Where [6] appears, read: femur, OVx mice, 5 mg · kg^1 · day^1.
[7] abbreviates: tibia, OVx mice, 1 mg · kg^-1 · day^-1.
Setting [8] is: tibia, OVx mice, 5 mg · kg^1 · day^1.

For `O=c1c(-c2ccc(O)cc2)coc2cc(O)cc(O)c12` [Compound 4, Genstein], in the data set with Calvarial osteoblasts, the ALP activity result is “significantly increased”. Besides, the “increase in BMP-2 expression” value in data set [1] turned out to be 5 fold. For the same compound, in the data set on Osteoblasts, the “growth / proliferation of the osteoblastic cells” value (shortened to “growth / proliferation”) is reported as “proliferation”.
On to `COc1cc(-c2coc3cc(O)cc(O)c3c2=O)ccc1O` [Compound 3, Pratensein or 3′-methoxygenistein], for which the ALP activity entry with Calvarial osteoblasts is “significantly increased”. Moreover, the “growth / proliferation” value with Osteoblasts is listed as “proliferation”.
The term melting point denotes the temperature, or range, at which the solid turns liquid. In turn, `COc1ccc(-c2coc3cc(O[C@@H]4OC(CO)[C@@H](O)[C@H](O)C4O)cc(O)c3c2=O)cc1` (stereo partly drawn) [Compound 6, Biochanin 7-O-glycoside] had a melting point of 206 to 208 °C. For the same compound, in the data set with Calvarial osteoblasts, the ALP activity result was “significantly increased”. In addition, the “growth / proliferation” value in the data set with Osteoblasts was “proliferation”.
For the compound `COc1ccc(-c2coc3cc(O)cc(O)c3c2=O)cc1` [Compound 1, Biochanin A], in the data set on Calvarial osteoblasts, the ALP activity entry was “significantly increased”. Moreover, the “growth / proliferation” value in the data set on Osteoblasts is listed as “proliferation”.
For the compound `COc1cc(OC)c(-c2coc3cc(O[C@@H]4OC(COC5OCC(O)(CO)C5O)[C@@H](O)C(O)C4O)c(OC)c(O)c3c2=O)cc1OC` (stereo partly drawn) [Compound 10], the melting point was 135 to 138 °C. Moreover, in the data set with Calvarial osteoblasts, the ALP activity entry is reported as “significantly increased”. Besides, the “increase in osteoblast differentiation over the control, assessed by ALP production” value with Calvarial osteoblasts (over the control, listed as Caviunin 7-O-[β-D-apiofuranosyl-(1→6)-β-D-glucopyranoside]) was greater than 1.0 fold. In addition, the “increase in BMP-2 expression” value in data set [1] is recorded as 15 fold. In the data set with Osteoblasts, the “growth / proliferation” value is “proliferation”. For the same compound, the “toxicity to the cells” value with Osteoblasts (osteoblasts, 1 pM to 1 μM for 48 h, vs vehicle control) was “not toxic”. Moreover, the “trabecular bone in tibia metaphysis” value in data set [2] (OVx mice) is “significantly restored”. In data set [2] (femur epiphysis of OVx mice compared to OVx+vehicle mice), the “Tb.sp and SMI” value is listed as “increased”. For the same compound, the “BV/TV, Tb.Th and Tb.N” value in data set [2] (femur epiphysis of OVx mice compared with OVx+vehicle group) is on record as “increased”. In addition, in data set [2] (setting [5]), the SMI was 1.992 ± 0.0382, the “Tb. No.” value came to 0.588 ± 0.034, the “Tb. Sp.” value turned out to be 0.529 ± 0.022 and the “Tb. Th.” value was determined as 0.069 ± 0.002. In addition, in data set [2] (setting [6]), the SMI is given as 1.615 ± 0.0434***^a, the “Tb. No.” value is on record as 0.759 ± 0.061***^b, the “Tb. Sp.” value is on record as 0.502 ± 0.023 ^ and the “Tb. Th.” value was 0.070 ± 0.001 ^. In data set [2] (femur, 1 mg · kg^-1 · day^-1), the BV/TV is 4.10 ± 0.253 %. Also, in data set [2] (femur, 5 mg · kg^1 · day^1), the BV/TV is 5.54 ± 0.739***^a %. In data set [2] (setting [7]), the SMI came to 2.46 ± 0.051, the “Tb. No.” value amounted to 0.222 ± 0.018, the “Tb. Sp.” value was 0.690 ± 0.013 and the “Tb. Th.” value is on record as 0.064 ± 0.0015. In addition, in data set [2] (setting [8]), the SMI is reported as 2.43 ± 0.072, the “Tb. No.” value was determined as 0.266 ± 0.014, the “Tb. Sp.” value was found to be 0.671 ± 0.040 and the “Tb. Th.” value is reported as 0.065 ± 0.001. This compound gave a BV/TV in data set [2] (tibia, 1 mg · kg^-1 · day^-1) of 1.67 ± 0.086 %. Moreover, the BV/TV in data set [2] (tibia, 5 mg · kg^1 · day^1) is listed as 1.701 ± 0.120 %. Moreover, in data set [3], the “mineralization of the bone marrow stromal cells” value was “significantly greater mineralization”.
As for `C[C@]12CC[C@@H]3c4ccc(O)cc4CC[C@H]3[C@@H]1CC[C@@H]2O` [ESTRADIOL (E2), Estradiol], in data set [4] (femur), the SMI amounted to 2.41 ± 0.13, the “Tb. No.” value came to 0.725 ± 0.024, the “Tb. Sp.” value was 0.86 ± 0.004 and the “Tb. Th.” value worked out at 0.78 ± 0.01. The compound further registered a BV/TV in data set [4] (femur) of 59.23 ± 30.19 %. For the same compound, in data set [4] (tibia), the SMI was 2.24 ± 0.021, the “Tb. No.” value worked out at 0.30 ± 0.02, the “Tb. Sp.” value worked out at 1.29 ± 0.029 and the “Tb. Th.” value worked out at 0.10 ± 0.004. This compound also yielded a BV/TV in data set [4] (tibia) of 3.04 ± 0.24 %. For the same compound, in data set [3], the “mineralization of the bone marrow stromal cells” value is “unable to increase mineralization”.
